We go through one compound from patent publication US20240325319A1, “INHIBITORS OF AMYLOID BETA OLIGOMERIZATION AND THERAPEUTIC USES THEREOF” (Northwestern University, priority 2021, published 2024).

Entries after “also recorded” stand apart in the source; their conditions may differ.

The target of experiment [1] is T1, intracellular cathepsin L activity (Rattus norvegicus, UniProt P07154).
T1 construct: endogenous in cells
Kind of experiment: Intracellular cathepsin L activity in hippocampal neurons (Magic Red). It is filed as cell-based. As to conditions: hippocampal neurons treated with NU-9 30 minutes. The protocol:
FIG. 26. A) 0.0003-150 μM NU-9 was combined with purified cathepsin L enzyme in the presence of the cathepsin L substrate Z-FR-AMC. Cathepsin L enzyme activity was measured by the rate of 7-AMC production by fluorescence. Percent change in rate was quantified in the graph. […] B) Mature hippocampal neurons were treated with NU-9 for 30 minutes, then Magic Red was used to monitor intracellular cathepsin L activity. Cells were treated in 3 wells, and 9-22 images were analyzed per condition.
No effect of 0.0003-150 μM NU-9 was observed on the cathepsin L activity as measured by the production rate of 7-AMC from Z-FR-AMC by purified cathepsin L enzyme.

The test system of another experiment is total Aβ species. In words: Total Aβ species in neuronal cultures (6E10 immunofluorescence). It is filed as cell-based, rat. Particulars: NU-9 3 μM, 30 min, then Aβ monomer 500 nM. The protocol:
FIG. 12. […] Mature hippocampal neurons were treated with NU-9 (3 μM, 30 min), then with Aβ monomer (500 nM, 30 min). These were labelled with 6E10 (anti-total Aβ, green) and MAP2 (anti-dendrite). Total number of Aβ particles per images as well as fluorescence intensity of Aβ signal (IntDen) was quantified).
To follow up on this, we treated neurons with NU-9 (3 μM, 30 min) followed by Aβ monomer (500 nM, 30 min) and attempted to observe total Aβ species by dot blot. […] So, instead of using dot blot, we used immunofluorescence, labelling treated neurons for total Aβ species. Using this protocol, we were able to avoid interaction of the antibody with cell culture media, allowing for specific labelling.

Another experiment has as its target T2, Aβ42 (Homo sapiens, UniProt P05067).
T2 construct: then treated with amyloid beta 1-42 (Aβ) monomer
In words: AβO formation from Aβ monomer in the absence of cells (dot blot, coverslips, fresh or conditioned media). In kind it is biochemical. The procedure:
FIG. 5. A) NU-9 and Aβ were combined in F12 media, in the absence of cells, and incubated at 37° C. B) The concentration of AβOs was probed with NU2 antibody via dot blot after 24 hours in the conditions containing 3 μM NU-9 with or without Aβ.
FIG. 6. In dishes without cells, but in conditions that mimicked cell culture, 3 μM NU-9 and 500 nM Aβ42 for 30 minutes fixed with 3.7% formaldehyde and stained for AβOs (NU2, green) and mounted on slides before imaging at 63×.
FIG. 9. The effect of NU-9 requires the presence of cells. Conditioned media was collected from mature hippocampal neuron. DMSO control (Control), Aβ monomer (Aβ), or NU-9 and then Aβ (NU-9+Aβ in cond. media) were added, then concentration of AβOs were analyzed by dot blot. Conditioned media was also collected from neurons treated with NU-9, then Aβ was added to this (Media from NU-9 in cells+Aβ). […] Standard curve was created in media using 0-1000 fmol AβOs. The dot blot was labelled with NU2 (anti-AβO).
FIG. 10. […] (Conditioned Media) A dot blot probed with NU2 was used to measure AβO abundance in solutions of conditioned media to which DMSO vehicle (control), Aβ, and NU-9 followed by Aβ were added for 30 min each. The bottom row corresponds to samples in which cells were treated with NU-9 for 30 min, then extracellular media was removed, and Aβ was added to the media for 30 min. The standard curve at the top was made from 0-1000 fmol preformed AβOs. (Fresh Media) A dot blot probed with NU2 was used to measure AβO abundance in solutions of culture media to which DMSO vehicle (control), Aβ, and NU-9 (3-300 μM) followed by Aβ were added for 30 min each. Each of these solutions was prepared in triplicate. The standard curve at the top was made from 0-1000 fmol preformed AβOs.
In the absence of cells, NU-9 has no effect on AβO formation. […] Next, a follow-up experiment was conducted using conditions that more closely mimicked those of cell culture. Coverslips were coated, as usual for cell culture, with poly-D-lysine, and then placed into culture dishes with media. No cells were added. Then 3 μM NU-9 and 500 nM AβOs were added for 30 min. In this assay, the previous result was replicated.
Instead, NU-9 exerts an effect at the cell membrane or intracellularly.

A further experiment concerns AβOs bound to neurons. Kind of experiment: AβOs bound to dendrites of hippocampal neurons treated with Aβ42 monomer (immunofluorescence, NU2/NU4). In kind it is cell-based, rat.
For the next experiment, the system named is preformed AβOs. Kind of experiment: Binding of preformed AβOs to hippocampal neurons. In kind it is cell-based, rat. The procedure: FIG. 11. […] Hippocampal neurons were treated with 3 μM NU-9 or vehicle for 30 min, then with Aβ monomer or preformed AβOs for 24 h. […] Neurons were stained with NU4 (anti-AβO antibody) and puncta per process were quantified.
FIG. 15. Mature hippocampal neurons were pre-treated with vehicle or 3 μM NU-9 for 30 min, then vehicle, 200 nM, or 500 nM AβO for 30 min. Then cells were fixed and labelled using anti-MAP2 (green, dendrites), DAPI (blue, nucleus), and NU2 (red, AβOs).
FIG. 19. Mature hippocampal neurons were treated first with 3 μM 9 for 30 min, and then with A) 30 or B) 200 nM LC AβOs for 30 min. Then, cells were fixed and labelled with anti-MAP2, DAPI, and NU2 (AβOs). The graphs show quantification of puncta/μm dendrite (30 images analyzed/condition, *** indicates p<0.001, ** p<0.01, * p<0.05).
If NU-9 did have some effect on preformed AβOs, this would support the alternate hypothesis that NU-9 removes AβO binding targets such as NKAα3 or PRP^c from the neuronal membrane^8-10.

A further experiment has as its system acidic lysosomes. In words: Lysotracker labelling of acidic compartments in hippocampal neurons. It is filed as cell-based, rat. Particulars: 3 μM NU-9, 30-minute treatment. The procedure:
FIG. 24. Mature E18 hippocampal neurons were treated 3 μM NU-9, and subsequently labelled with lysotracker. A) total immunofluorescence (integrated density), B) mean intensity, C) average size of acidic compartments, D) number of acidic compartments.

T2 sequence (P05067 672-713): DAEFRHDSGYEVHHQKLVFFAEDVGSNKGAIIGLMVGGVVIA
T1 sequence (P07154 114-334): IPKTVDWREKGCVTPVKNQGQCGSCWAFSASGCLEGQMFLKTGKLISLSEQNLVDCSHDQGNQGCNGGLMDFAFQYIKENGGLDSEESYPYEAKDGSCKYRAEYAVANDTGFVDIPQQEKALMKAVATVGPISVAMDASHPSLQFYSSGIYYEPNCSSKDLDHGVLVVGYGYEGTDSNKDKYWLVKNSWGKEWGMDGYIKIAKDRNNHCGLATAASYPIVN

For `C[C@H](Oc1cc(C(F)(F)F)cc(C(F)(F)F)c1)C1CC(=O)CC(=O)C1` [NU-9, (S)-5-(1-(3,5-bis(trifluoromethyl)phenoxy)ethyl)cyclohexane-1,3-dione], the “intracellular cathepsin L activity” value in experiment [1] is recorded as “not observed to modulate intracellular cathepsin L activity”. In addition, the “total Aβ species (particles, IntDen)” value in the experiment on total Aβ species is on record as “does not reduce total Aβ species observable in neuronal cultures”. Moreover, the “AβO concentration by NU2 dot blot, no cells” value at Aβ42 (3 μM NU-9 and Aβ in F12 media, 37° C., 24 hours) was “no change in AβO formation was observed; also recorded: No significant difference was observed”. Further, the “AβOs formed from Aβ monomer in conditioned media of untreated cells” value at Aβ42 (NU-9 3 μM, 30 min added to media, Aβ monomer 500 nM, 30 min) was “did not reduce the number of AβOs formed from Aβ monomer; also recorded: Aβ was not reduce in any treatment condition”. In addition, the “AβO formation from Aβ monomer in fresh media (dot blot)” value at Aβ42 (NU-9 3-300 μM followed by Aβ, 30 min each) was “did not reduce ABO formation directly; also recorded: does not reduce AβO formation from Aβ monomer in cell-free solution”. The “AβOs formed from Aβ monomer in conditioned media from cells treated with NU-9” value at Aβ42 (cells treated 3 μM NU-9 30 min, media removed, Aβ added 30 min) is given as “also did not reduce the number of AβOs formed from Aβ monomer in the absence of cells”. For the same compound, the “number of AβOs bound to coverslips, no cells” value at Aβ42 (poly-D-lysine coverslips in media, 3 μM NU-9 and 500 nM Aβ42, 30 min) is on record as “did not affect AβO formation; also recorded: did not significantly affect the number of AβOs bound to coverslips”. Besides, in the experiment with AβOs bound to neurons (100 nM bafilomycin A 30 min, NU-9 3 μM 30 min, Aβ monomer 500 nM 30 min), the “effect of NU-9 on neuron-binding AβOs in the presence of lysosome inhibitor” value is reported as “unable to do so; also recorded: abolished in the presence of a lysosome acidification inhibitor”. The “AβOs bound to dendrites when NU-9 is washed out prior to Aβ monomer” value in the experiment with AβOs bound to neurons (NU-9 pre-treatment, washout, then Aβ 500 nM, 30 min) is reported as “leads to a reduction in AβOs bound to dendrites; also recorded: maintained even when NU-9 was washed out; also recorded: reduced the number of AβOs bound to dendrites; also recorded: remains effective even when it is washed out”. Also, the “binding of AβOs to hippocampal neurons (puncta/μm dendrite)” value in the experiment with preformed AβOs (3 μM 30 min, then 30 or 200 nM LC AβOs 30 min) is reported as “no effect on the binding of the AβOs to hippocampal neurons”. Further, in the experiment on preformed AβOs (3 μM NU-9 30 min, then 200 or 500 nM AβO 30 min), the “binding of preformed AβOs to dendrites (puncta/μm)” value is reported as “has no effect on the binding of preformed AβOs; also recorded: no effect on binding to dendrites”. The “binding of preformed AβOs to neurons (NU4 puncta per process)” value in the experiment on preformed AβOs (3 μM NU-9 30 min, then preformed AβOs 24 h) is “does not reduce binding in neurons treated with premade AβOs; also recorded: does not reduce binding of preformed AβOs to neurons”. For the same compound, the “lysosome number, size, and acidity” value in the experiment with acidic lysosomes is reported as “unchanged”.
